# According to US20190211020A1 (Agency for Science, Technology and Research, priority 2012, published 2019):
# Entries after “also recorded” stand apart in the source; their conditions may differ.
# Legend:
# [1] = test system: BC CD34+ CML cells; details: background; cited from earlier work
# [2] = test system: active nuclear beta-catenin in BC GMPs; details: background; cited from earlier work
# [3] = test system: eIF4E phosphorylation in cerebellar neurons in brain sections; test: Immunoblot of phospho-eIF4E in mouse cerebellar brain slices; details: 40 μM CGP57380 or 50 nM ETC7168 for 45 mins
# Procedure: For biochemical analyses mice were sacrificed by CO2 inhalation, the cerebellum dissected and rapidly placed in a vibratome chamber and sectioned at 300 μm in cold oxygenated aCSF (in mM: 125 NaCl, 2.5 KCl, 1 MgCl2, 2 CaCl2, 1.25 NaH2PO4, 20 Glucose, 26 NaHCO3, 95% O2/5% CO2). Slices obtained were maintained at 33° C. in oxygenated aCSF and treated with 40 μM CGP57380 or 50 nM ETC7168 for 45 mins and tissues were subsequently snap frozen in liquid nitrogen. Tissues were lysed in 25 mM Tris-HCl, 150 mM NaCl, 1% Triton, 0.2% SDS, 5 mM EDTA, 2 mM DTT, 1 mM NaF, 1 mM Na3VO4 containing protease inhibitor cocktail. The soluble fractions were analyzed by immunoblotting with primary antibodies for 24 hrs at 4° C. followed by detection with secondary antibodies for enhanced chemoluminescent detection. […] Behavioral testing was performed using a well-accepted test for autism that consists of quantitative analysis of ultrasonic vocalizations emitted by male mice exposed to females in estrous^75. […] Prior to testing, the estrous cycle of each female mouse was assessed and only females in estrous were kept for testing. […] Subsequently a female in estrous was introduced in the arena, and ultrasonic vocalizations were recorded for 3 min using the Avisoft system (Avisoft Bioacoustics) with a frequency bandwidth of 30 kHz to 100 kHz. The number and length of ultrasonic vocalizations were quantified. […]
# [4] = test system: CD34+BC cells (including those carrying T315I mutation); details: background; cited from earlier work
# [5] = test system: eIF4E phosphorylation in BC GMPs; details: background; cited from earlier work
# [6] = test system: TNF production by macrophage; details: stimulation with TLR agonists; background; cited from earlier work
# [7] = test system: normal CD34+ cells; details: background; cited from earlier work
# [8] = test system: eIF4G levels in brain sections from Nlgn3 knock-out mice; test: Immunoblot of eIF4G in brain slices of Nlgn3 knock-out mice; parameters: species or system mouse; details: 40 μM CGP57380 or 50 nM ETC7168
# Procedure: For biochemical analyses mice were sacrificed by CO2 inhalation, the cerebellum dissected and rapidly placed in a vibratome chamber and sectioned at 300 μm in cold oxygenated aCSF (in mM: 125 NaCl, 2.5 KCl, 1 MgCl2, 2 CaCl2, 1.25 NaH2PO4, 20 Glucose, 26 NaHCO3, 95% O2/5% CO2). Slices obtained were maintained at 33° C. in oxygenated aCSF and treated with 40 μM CGP57380 or 50 nM ETC7168 for 45 mins and tissues were subsequently snap frozen in liquid nitrogen. Tissues were lysed in 25 mM Tris-HCl, 150 mM NaCl, 1% Triton, 0.2% SDS, 5 mM EDTA, 2 mM DTT, 1 mM NaF, 1 mM Na3VO4 containing protease inhibitor cocktail. The soluble fractions were analyzed by immunoblotting with primary antibodies for 24 hrs at 4° C. followed by detection with secondary antibodies for enhanced chemoluminescent detection. Impact of MNK inhibitors on autism-related behavior was tested in a knock-out mouse model for autism. Nlgn3 knock-out mouse model a human mutation identified in patients with autism^73-74. Compounds were applied in DMSO using intraperitoneal injection in adult male mice (2-4 months of age). Two injections were performed, the first 30 h and a second one 5 h before testing. Behavioral testing was performed using a well-accepted test for autism that consists of quantitative analysis of ultrasonic vocalizations emitted by male mice exposed to females in estrous^75. The apparatus consisted of an arena (40 cm×20 cm) surrounded by 30-cm-high walls made of grey plastic and equipped with a microphone and a video camera. Prior to testing, the estrous cycle of each female mouse was assessed and only females in estrous were kept for testing. Male mice were acclimatized for 3 min in the chamber. Subsequently a female in estrous was introduced in the arena, and ultrasonic vocalizations were recorded for 3 min using the Avisoft system (Avisoft Bioacoustics) with a frequency bandwidth of 30 kHz to 100 kHz. The number and length of ultrasonic vocalizations were quantified. All animal experiments were approved by the cantonal veterinary office Basel-Stadt, Switzerland.
# [9] = test system: normal cord blood CD34+ cells; details: background; cited from earlier work
# [10] = test system: patient-derived BC cells in NSG mice; details: 40 mg/kg/d CGP or 5 mg/kg/d dasatinib for three weeks; read at 16 weeks; cited from earlier work
smiles,measurement,setting,value
Nc1ncnc2n[nH]c(Nc3ccc(F)cc3)c12 [CGP57380],ability of BC CD34+ CML cells to engraft NSG mice after in vitro treatment,[1],retarded their ability to engraft NSG mice
same,accumulation of active nuclear beta-catenin in BC GMPs,[2],prevents accumulation of active nuclear beta-catenin
same,eIF4E phosphorylation in cerebellar brain sections,[3],inhibit eIF4E phosphorylation
same,ability of CD34+ BC cells to serially replate for more than 8 weeks in methylcellulose,[4],impaired the ability
same,eIF4E phosphorylation in BC GMPs,[5],inhibited eIF4E phosphorylation
same,TNF production / release by macrophage,[6],inhibited; also recorded: inhibits the release of TNF alpha
same,ability of normal CD34+ cells to serially replate,[7],not
same,eIF4G levels in brain sections from Nlgn3 knock-out mice,[8],elevation in eIF4G levels; also recorded: elevated eIF4G levels
same,ability of normal cord blood CD34+ cells to engraft NSG mice after in vitro treatment,[9],not
same,serial transplantation of BC cells in NSG mice after in vivo treatment,[10],prevented BC cells from serially transplanting NSG mice
